Source: publication PMC5745756, “N,N-disubstituted azines attenuate LPS-mediated neuroinflammation in microglia and neuronal apoptosis via inhibiting MAPK signaling pathways” (BMC Neuroscience, 2017)

Legend:
Assay type in all cases: cell-based, murine
[1] = test system: NO production in LPS-activated BV-2 cells; assay: Nitrite (Griess) assay of NO production in LPS-activated BV-2 cells
Procedure: (§1) […] or MTT assay was performed as described by our previous publication with slight modification. In order to measure MTT and NO production, BV-2 cells were plated into a 96-well plate at a density of 4 × 10^4 cells/well. […] Then, nitrite (a soluble oxidation product of NO) was detected in the culture media by using the Griess reaction. The supernatant (50 µL) was collected and mixed with an equal volume of Griess reagent (1% sulfanilamide in phosphoric acid and 0.1% N-1-napthylethylenediamine dihydrochloride). The absorbance was measured at 570 nm by using a microplate reader. Sodium nitrite was used to create a standard curve from which the NO2 concentration was calculated. The cell viability was evaluated by spectrophotometrically measuring the reduction of yellow 3-[4,5-dimethylthiazol-2-yl]-2,5-diphenyltetrazolium bromide (MTT) to purple formazan crystals. MTT was dissolved in DMEM, added to the culture plate containing cells at a final concentration of 0.5 mg/mL, and incubated for 1 h. The medium containing the MTT solution was carefully removed, and 200 µL DMSO was added to each well. After solubilizing the stained cells to produce a formazan-colored solution, the optical density (OD) was measured on a microplate reader at 570 nm, and the results were expressed as a percentage of the LPS-treated group. The same plate was used for the NO and MTT assays. The cell supernatant was used for the NO assay, and the plated cells were used for the MTT assay.
(§2) The NO production and cell viability of LPS-activated BV-2 cells were measured after treatment with azine derivatives using Griess reagent and MTT assay, respectively.

[2] = test system: extracellular signal-regulated kinase (ERK); assay: Western blot of LPS-induced ERK phosphorylation in BV-2 cells; settings: 5–20 µM; LPS 30 min, similar pattern at 24 h
Procedure: BV-2 cells were seeded in a 6-well plate at a density of 6 × 10^5 cells/well and exposed to LPS (100 ng/mL) in the presence or absence of compound 3 for required time. After treatment, cells were collected and lysed in cell lysis buffer (50 mM Tris–HCl, pH 8.0, 0.1% SDS, 150 mM NaCl, 1% NP-40, 0.02% sodium azide, 0.5% sodium deoxycholate, 100 µg/mL PMSF, and […]) for 24 h at 4 °C. The protein content was measured using a Bradford assay. Equal amounts of protein (30 µg) were separated using SDS-PAGE and transferred to a nitrocellulose membrane. The membrane was blocked for 1 h with 5% skim milk in tris-buffered saline with Tween-20 (TBST) and then incubated for 12 h with primary antibodies against α-tubulin (Sigma-Aldrich Cat. no: T5168), iNOS (Bioscience Cat. no: 610333, COX-2 (Santa Cruz Cat. no: sc-1745), ERK (Cell Signaling Cat. no: 9107s), pERK (Cell Signaling Cat. no: 5013s), JNK (Cell Signaling Cat. no: 9252s), pJNK (Cell Signaling Cat. no: 4671s), p38 (Cell Signaling Cat. no: 8690s), and pP38 (Cell Signaling Cat. no: 9211s), followed by incubation for 1 h with horseradish peroxidase-conjugated secondary antibodies (Cell Signaling) at 15 °C. […]
Fig. 3 Effect of compound 3 on MAPK pathway in LPS-induced BV-2 cells. […] The phosphorylation of p38, JNK, and ERK was measured by western blotting (a–c). […]

BV2 cells = assay: β-amyloid induced BV2 cell cytotoxicity
Description: Here, we have investigated whether the compound 3 has any direct protective effects on microglia and neurons against LPS and TNF-α induced direct toxicity. As the aim of this study is to check the effectiveness of compound 3 against neurodegenerative conditions, here we checked the effect of this compound to protect microglial cells against β-amyloid induced cytotoxicity as shown in Fig. 5a. […] LPS treatment was unable to induce cellular toxicity to N2a cells (Fig. 5b). […] Compound 3 mediated neuroprotection in N2a cells is due to the inhibition of proinflammatory cytokines produced by LPS activated microglia.
Fig. 5 Cytoprotection of compound 3 in β-amyloid induced BV2 cell and LPS and TNF-α induced N2a cell toxicity

[3] = MTT cell viability of LPS-activated BV-2 cells; settings: mouse, LPS-activated BV-2 microglial cells; 20 µM compound; percentage of the LPS-only treatment group; mean ± standard deviation, three experiments
Procedure: as §1, §2

BV-2 cells = assay: MTT cell viability of LPS-activated BV-2 cells; settings: at 20 µM
Procedure: as §1, §2

Question: Which results are given for `COc1cc(/C=C/C=N/N=C/C=C/c2ccc(O)c(OC)c2)ccc1O` [Compound 3, 4,4′-(1E,1′E,3E,3′E)-3,3′-(hydrazine-1,2-diylidene)bis(prop-1-ene-1-yl-3-ylidene)bis(2-methoxyphenol)]?
Answer: LPS-induced NO production ([1]; LPS-activated BV-2 cells): strongly inhibited; IC50 ([1]; Mus musculus, BV-2, 100 ng/mL LPS, 24 h, Griess reaction, read-out: IC50, concentration that caused 50% inhibition of NO production in LPS-activated BV-2 cells): 12.5 µM; Phosphorylation of ERK [2]: did not alter; Microglial cell death against β-amyloid (BV2 cells): significantly prevented; viability at 24 h, 20 µM [3]: 101 ± 2.53%; Cytotoxicity to BV-2 cells (BV-2 cells): without cytotoxicity
